# Measurements: US20120053148A1, “INHIBITORS OF HEPATITIS C VIRUS” (GILEAD SCIENCES, INC., priority 2010, published 2012)
# System: HCV Replicon IB
# Test: HCV replicon assay in Huh-7 cells, genotype 1b (Rluc luciferase readout)
# Assay type: cell-based, hepatitis C virus
# Details: HCV1B replicon, Huh-7 cells, 3 days; read-out: EC50_HCV1B_
row,SMILES,EC50 [nM]
1,CC(C)(C)c1cc(C2CC2)cc2c(N)cc(C(=O)NCC3CS(=O)(=O)CCN3)nc12 (centres unmarked) [Compound 324],3.63
2,CC(C)(C)c1cc(C2CC2)cc2c(N)cc(C(=O)NCC3CS(=O)(=O)CCN3)nc12 (centres unmarked) [Compound 334],1.71
3,CC(C)(C)c1cc(C2CC2)cc2c(N)cc(-c3nnc(NC[C@@H]4CCCO4)o3)nc12 [Compound 359],1.21
4,Cc1cc(-c2nnc(NCC[C@H](C)O)s2)nc2c(C(C)(C)C)cc(C3CC3)cc12 [Compound 385],1.73
5,Cc1cc(-c2nnc(NCC[C@H](C)O)s2)nc2c(C(C)(C)C)cc(C3CC3)cc12 [Compound 403],6.52

# Same assay, conditions: Hepatitis C virus, Huh-7, 72 h, HCV1B replicon, Huh-7 cells, 3 days; read-out: EC50_HCV1B_
row,SMILES,EC50 [nM]
1,CO[C@@H]1CNC(CNc2nnc(-c3cc(C)c4cc(C5CC5)cc(C(F)(F)F)c4n3)s2)C1 (some centres unmarked) [Compound 311],1140
2,Cc1cc(-c2nnc(NCC3CSCCN3)s2)nc2c(C(F)(F)F)cc(C3CC3)cc12 (centres unmarked) [Compound 312],2120
3,Cc1cc(-c2nnc(Nc3cn[nH]c3)s2)nc2c(C(F)(F)F)cc(C3CC3)cc12 [Compound 313],10.2
4,Nc1cc(C(=O)NC[C@@H]2CC(F)(F)CCN2)nc2c(C(F)(F)F)cc(OC(F)F)cc12 [Compound 314],26.1
5,Nc1cc(C(=O)NC[C@H]2CC(F)(F)CCN2)nc2c(C(F)(F)F)cc(OC(F)F)cc12 [Compound 315],83.9
6,CCC(CNC(=O)c1cc(N)c2cc(OC(F)F)cc(C(F)(F)F)c2n1)=NOC [Compound 316],61.8
7,CC(=O)N1CCNC(CNC(=O)c2cc(N)c3cc(OC(F)F)cc(C(F)(F)F)c3n2)C1 (centres unmarked) [Compound 317],9790
8,CS(=O)(=O)N1CCNC(CNC(=O)c2cc(N)c3cc(OC(F)F)cc(C(F)(F)F)c3n2)C1 (centres unmarked) [Compound 318],44400
9,CC(C)(C)c1cc(C2CC2)cc2c(N)cc(C(=O)NCc3ncccn3)nc12 [Compound 319],0.81
10,CC(C)(C)c1cc(C2CC2)cc2c(N)cc(C(=O)NCc3cnccn3)nc12 [Compound 320],1.7
11,CC(C)(C)c1cc(C2CC2)cc2c(N)cc(C(=O)NCc3ccon3)nc12 [Compound 322],5.38
12,CO[C@H]1CN[C@H](CNC(=O)c2cc(N)c3cc(C4CC4)cc(C(C)(C)C)c3n2)C1 [Compound 323],7
13,CCC(O)CNC(=O)c1cc(N)c2cc(C3CC3)cc(C(C)(C)C)c2n1 (centres unmarked) [Compound 326],13.8
14,CO[C@H]1CN[C@@H](CNC(=O)c2cc(N)c3cc(C4CC4)cc(C(C)(C)C)c3n2)C1 [Compound 327],16.5
15,CO[C@@H]1CN[C@H](CNC(=O)c2cc(N)c3cc(C4CC4)cc(C(C)(C)C)c3n2)C1 [Compound 328],15.9
16,CO[C@@H]1CN[C@@H](CNC(=O)c2cc(N)c3cc(C4CC4)cc(C(C)(C)C)c3n2)C1 [Compound 329],9.8
17,CCO[C@H]1CN[C@H](CNC(=O)c2cc(N)c3cc(C4CC4)cc(C(C)(C)C)c3n2)C1 [Compound 330],19.8
18,CCCO[C@H]1CN[C@H](CNC(=O)c2cc(N)c3cc(C4CC4)cc(C(C)(C)C)c3n2)C1 [Compound 331],243
19,CC(C)(C)c1cc(C2CC2)cc2c(N)cc(C(=O)NC[C@@H]3CC4(CN3)SCCS4)nc12 [Compound 333],6.32
20,CC(C)(C)c1cc(C2CC2)cc2c(N)cc(C(=O)NC[C@H]3CS(=O)(=O)CCN3)nc12 [Compound 335],3.02
21,CC(C)(C)c1cc(C2CC2)cc2c(N)cc(C(=O)NC[C@@H]3CSCN3)nc12 [Compound 336],4.45
22,CC(C)(C)c1cc(C2CC2)cc2c(N)cc(C(=O)NCC3COC3)nc12 [Compound 337],69.6
23,Cc1nnc(-c2cc(OC(F)(F)F)cc3c(Cl)cc(C(=O)NCc4ccccn4)nc23)o1 [Compound 338],4710
24,Cc1nnc(-c2cc(OC(F)(F)F)cc3c(N)cc(C(=O)NCc4ccccn4)nc23)[nH]1 [Compound 339],1230

row,SMILES,EC50 [nM]
1,CCCCNC(=O)[C@@H]1CSC(c2cc(C)c3cc(OC(F)F)cc(C(F)(F)F)c3n2)=N1 [Compound 340],3900
2,CNC(=O)[C@@H]1CSC(c2cc(C)c3cc(OC(F)F)cc(C(F)(F)F)c3n2)=N1 [Compound 341],3530
3,CC(C)(C)c1cc(C2CC2)cc2c(N)cc(-c3nnc(NCC4OCCO4)o3)nc12 [Compound 342],2.11
4,CCCCNc1nnc(-c2cc(N)c3cc(C4CC4)cc(C(C)(C)C)c3n2)o1 [Compound 344],11
5,CC(C)(C)c1cc(C2CC2)cc2c(N)cc(-c3nnc(NCC(F)(F)F)o3)nc12 [Compound 345],560
6,CC(F)(F)CNc1nnc(-c2cc(N)c3cc(C4CC4)cc(C(C)(C)C)c3n2)o1 [Compound 346],157
7,CC(C)(C)c1cc(C2CC2)cc2c(N)cc(-c3nnc(NCc4ccccn4)o3)nc12 [Compound 347],7.54
8,CC(C)(C)c1cc(C2CC2)cc2c(N)cc(-c3nnc(NC4CCCC4)o3)nc12 [Compound 348],5.27
9,CC(C)(C)c1cc(C2CC2)cc2c(Cl)cc(-c3nnc(Nc4ccccc4)o3)nc12 [Compound 349],26.9
10,CC(C)(C)c1cc(C2CC2)cc2c(N)cc(-c3nnc(NC[C@@H]4CCCO4)o3)nc12 [Compound 350],1.9
11,CC(C)(C)c1cc(C2CC2)cc2c(N)cc(-c3nnc(NCCS(N)(=O)=O)o3)nc12 [Compound 351],24.1
12,CC(C)(C)c1cc(C2CC2)cc2c(N)cc(-c3nnc(NCC4CCCCO4)o3)nc12 (centres unmarked) [Compound 354],15.3
13,CC(C)(C)c1cc(C2CC2)cc2c(N)cc(-c3nnc(NCCCCO)o3)nc12 [Compound 355],3.24
14,CC(C)(C)c1cc(C2CC2)cc2c(N)cc(-c3nnc(NCCCC(F)(F)F)o3)nc12 [Compound 356],10.6
15,CC(C)(C)c1cc(C2CC2)cc2c(N)cc(-c3nnc(Nc4cccc(S(N)(=O)=O)c4)o3)nc12 [Compound 357],356
16,CC(C)(C)c1cc(C2CC2)cc2c(NC(=O)CN)cc(-c3nnc(NCC4OCCO4)o3)nc12 [Compound 361],7.36
17,CC(C)(C)c1cc(C2CC2)cc2c(N)cc(-c3nnc(NCCCO)o3)nc12 [Compound 365],4.87
18,CCCNc1nnc(-c2cc(N)c3cc(C4CC4)cc(C(C)(C)C)c3n2)o1 [Compound 366],2.01
19,CC(C)(O)CCNc1nnc(-c2cc(N)c3cc(C4CC4)cc(C(C)(C)C)c3n2)o1 [Compound 367],2.15
20,CC(C)(C)c1cc(C2CC2)cc2c(N)cc(-c3nnc(NCC(F)(F)CO)o3)nc12 [Compound 372],1.95
21,Nc1nnc(-c2cc(N)c3cc(C4CC4)cc(C(F)(F)F)c3n2)s1 [Compound 373],65
22,CC(C)(O)CCNc1nnc(-c2cc(N)c3cc(C4CC4)cc(C(F)(F)F)c3n2)s1 [Compound 374],62
23,Nc1cc(-c2nnc(NCCCO)s2)nc2c(C(F)(F)F)cc(C3CC3)cc12 [Compound 375],9.56
24,CCCCNc1nnc(-c2cc(N)c3cc(C4CC4)cc(C(C)(C)C)c3n2)s1 [Compound 376],0.86

row,SMILES,EC50 [nM]
1,CCCCNc1nnc(-c2cc(C)c3cc(C4CC4)cc(C(C)(C)C)c3n2)s1 [Compound 377],6.23
2,CCCCNc1nnc(-c2cc(Cl)c3cc(C4CC4)cc(C(C)(C)C)c3n2)s1 [Compound 378],48.9
3,Cc1cc(-c2nnc(N)s2)nc2c(C(C)(C)C)cc(C3CC3)cc12 [Compound 379],1100
4,Cc1cc(-c2nnc(NCCCO)s2)nc2c(C(C)(C)C)cc(C3CC3)cc12 [Compound 380],12.7
5,Cc1cc(-c2nnc(NCC3CC(F)(F)CN3)s2)nc2c(C(C)(C)C)cc(C3CC3)cc12 (centres unmarked) [Compound 381],2930
6,Cc1cc(-c2nnc(Nc3cn[nH]c3)s2)nc2c(C(C)(C)C)cc(C3CC3)cc12 [Compound 382],14.2
7,CC(C)(O)CCNc1nnc(-c2cc(N)c3cc(C4CC4)cc(C(C)(C)C)c3n2)s1 [Compound 383],4.85
8,CC(C)(C)c1cc(C2CC2)cc2c(N)cc(-c3nnc(NCCCO)s3)nc12 [Compound 384],3.66
9,Cc1cc(-c2nnc(NCC[C@@H](C)O)s2)nc2c(C(C)(C)C)cc(C3CC3)cc12 [Compound 386],1.14
10,CCCNc1nnc(-c2cc(C)c3cc(C4CC4)cc(C(F)(F)F)c3n2)o1 [Compound 387],3.3
11,CCCCCNc1nnc(-c2cc(C)c3cc(C4CC4)cc(C(F)(F)F)c3n2)o1 [Compound 388],13.2
12,CCCCCCNc1nnc(-c2cc(C)c3cc(C4CC4)cc(C(F)(F)F)c3n2)o1 [Compound 389],145
13,Cc1cc(-c2nnc(NC3CCCC3)o2)nc2c(C(F)(F)F)cc(C3CC3)cc12 [Compound 390],1.75
14,Cc1cc(-c2nnc(NCCCS(N)(=O)=O)o2)nc2c(C(C)(C)C)cc(C3CC3)cc12 [Compound 393],1200
15,Cc1cc(-c2nnc(NCc3ncc[nH]3)o2)nc2c(C(C)(C)C)cc(C3CC3)cc12 [Compound 394],1130
16,Cc1cc(-c2nnc(NCCS(N)(=O)=O)o2)nc2c(C(C)(C)C)cc(C3CC3)cc12 [Compound 395],34.4
17,Cc1cc(-c2nnc(NC3CNCC3O)o2)nc2c(C(C)(C)C)cc(C3CC3)cc12 (centres unmarked) [Compound 396],1110
18,Cc1cc(-c2nnc(NC[C@H]3CCCO3)o2)nc2c(C(C)(C)C)cc(C3CC3)cc12 [Compound 397],3.17
19,Cc1cc(-c2nnc(NC[C@@H]3CCCO3)o2)nc2c(C(C)(C)C)cc(C3CC3)cc12 [Compound 398],3.69
20,Cc1cc(-c2nnc(NC3CCNC3)o2)nc2c(C(C)(C)C)cc(C3CC3)cc12 (centres unmarked) [Compound 399],888
21,Cc1cc(-c2nnc(Nc3cn[nH]c3)o2)nc2c(C(C)(C)C)cc(C3CC3)cc12 [Compound 400],75.5
22,Cc1cc(-c2nnc(Nc3ccccn3)o2)nc2c(C(C)(C)C)cc(C3CC3)cc12 [Compound 402],2.86

# Same assay, conditions: Hepatitis C virus, Huh-7, 72 h, read-out: EC50_HCV1B_(nM)
row,SMILES,EC50 [nM]
1,CC(C)(C)c1cc(C2CC2)cc2c(N)cc(C(=O)NC[C@@H]3CC4(CN3)OCCO4)nc12 [Compound 332],3.07

# Same assay, conditions: Hepatitis C virus, Huh-7, 72 h; read-out: EC50_HCV1B_
row,SMILES,EC50 [nM]
1,CC(C)(C)c1cc(C2CC2)cc2c(NC(=O)CN)cc(-c3nnc(NC4CCCC4)o3)nc12 [Compound 360],44.1
